Results: patent US12655116B2, “Substituted isophthalic acid diamides” (Bayer Aktiengesellschaft, priority 2020, dated 2026)

How the values were obtained:
DIGSA = assay: Post-emergence herbicidal action against DIGSA; assay type: in vivo, Digitaria sanguinalis
Method in brief: (§1)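 A WP or EC formulation diluted in water with 0.2% wetting agent was sprayed at 600 to 800 l/ha onto one-leaf-stage plants grown in sandy loam. About 3 weeks later, action was rated visually in percent, 100% being dead plants.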

ALOMY [1] = assay: Post-emergence herbicidal action against ALOMY; assay type: in vivo, Alopecurus myosuroides; details: dosage 20 g/ha, visual assessment about 3 weeks after treatment vs untreated controls
Method in brief: as §1

ALOMY [2] = assay: Pre-emergence herbicidal action against ALOMY; assay type: in vivo, Alopecurus myosuroides; details: 80 g/ha, pre-emergence, scored visually after 3 weeks vs untreated controls (100% = plants have died, 0% = like control plants)
Method in brief: (§2)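 Greenhouse pots of sandy loam held seeds covered with soil, onto which the compound was applied before emergence. An aqueous suspension or emulsion of WP or EC was used at 600 to 800 l/ha with 0.2% wetting agent. Percent damage was judged visually at 3 weeks.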

PHBPU [3] = assay: Post-emergence herbicidal action against PHBPU; assay type: in vivo, Pharbitis purpurea
Method in brief: as §1

AVEFA [4] = assay: Post-emergence herbicidal action against AVEFA; assay type: in vivo, Avena fatua; details: 20 g/ha, visual assessment about 3 weeks after treatment, 100% = plants have died, 0% = like control plants
Method in brief: as §1

POLCO = assay: Pre-emergence herbicidal action against POLCO; assay type: in vivo, Polygonum convolvulus; details: dosage 80 g/ha
Method in brief: as §2

ECHCG [5] = assay: Pre-emergence herbicidal action against ECHCG; assay type: in vivo, Echinochloa crus-galli; details: 80 g/ha
Method in brief: as §2

ECHCG [6] = assay: Post-emergence herbicidal action against ECHCG; assay type: in vivo, Echinochloa crus-galli
Method in brief: as §1

VIOTR [7] = assay: Post-emergence herbicidal action against VIOTR; assay type: in vivo, Viola tricolor; details: 20 g/ha
Method in brief: as §1

MATIN [8] = assay: Pre-emergence herbicidal action against MATIN; assay type: in vivo, Matricaria inodora
Method in brief: as §2

AMARE [9] = assay: Post-emergence herbicidal action against AMARE; assay type: in vivo, Amaranthus retroflexus; details: 20 g/ha, visual assessment about 3 weeks after treatment, 100% = plants have died, 0% = like control plants
Method in brief: as §1

SETVI [10] = assay: Post-emergence herbicidal action against SETVI; assay type: in vivo, Setaria viridis
Method in brief: as §1

AMARE [11] = assay: Pre-emergence herbicidal action against AMARE; assay type: in vivo, Amaranthus retroflexus
Method in brief: as §2

SETVI [12] = assay: Pre-emergence herbicidal action against SETVI; assay type: in vivo, Setaria viridis; details: dosage 80 g/ha
Method in brief: as §2

VIOTR [13] = assay: Pre-emergence herbicidal action against VIOTR; assay type: in vivo, Viola tricolor
Method in brief: as §2

ABUTH [14] = assay: Post-emergence herbicidal action against ABUTH; assay type: in vivo, Abutilon theophrasti; details: visual assessment about 3 weeks after treatment vs untreated controls
Method in brief: as §1

MATIN [15] = assay: Post-emergence herbicidal action against MATIN; assay type: in vivo, Matricaria inodora
Method in brief: as §1

ABUTH [16] = assay: Pre-emergence herbicidal action against ABUTH; assay type: in vivo, Abutilon theophrasti
Method in brief: as §2

AVEFA [17] = assay: Pre-emergence herbicidal action against AVEFA; assay type: in vivo, Avena fatua; details: 80 g/ha, pre-emergence
Method in brief: as §2

PHBPU [18] = assay: Pre-emergence herbicidal action against PHBPU; assay type: in vivo, Pharbitis purpurea; details: dosage 80 g/ha
Method in brief: as §2

VERPE = assay: Pre-emergence herbicidal action against VERPE; assay type: in vivo, Veronica persica; details: dosage 80 g/ha
Method in brief: as §2

[19] = 80 g/ha, scored visually after 3 weeks vs untreated controls (100% = plants have died, 0% = like control plants)

CCNC(=O)c1c(C(F)(F)F)ccc(C(=O)Nc2nnnn2CC)c1CC [Example 2-272]
100%: Post-emergence action against PHBPU in % (PHBPU [3]; dosage 20 g/ha) | Pre-emergence action against ECHCG in % (ECHCG [5]) | Pre-emergence action against MATIN in % (MATIN [8]; dosage 20 g/ha) | Pre-emergence action against MATIN in % (MATIN [8]; dosage 80 g/ha) | Post-emergence action at 20 g/ha against AMARE in % (AMARE [9]) | Post-emergence action against SETVI in % (SETVI [10]; dosage 20 g/ha) | Pre-emergence action against AMARE in % (AMARE [11]; 20 g/ha, scored visually after 3 weeks vs untreated controls, 100% = plants have died, 0% = like control plants) | Pre-emergence action against AMARE in % (AMARE [11]; [19]) | Pre-emergence action against SETVI in % (SETVI [12]) | Pre-emergence action against VIOTR in % (VIOTR [13]; dosage 80 g/ha) | Pre-emergence action against ABUTH (herbicidal activity) (ABUTH [16]; [19]) | Pre-emergence action against ABUTH (herbicidal activity in percent) (ABUTH [16]; dosage 20 g/ha, scored visually after 3 weeks vs untreated controls, 100% = plants have died, 0% = like control plants)
80%: Post-emergence action at 20 g/ha against AVEFA in % (AVEFA [4]) | Pre-emergence action against POLCO in % (POLCO) | Post-emergence action against ECHCG in % (ECHCG [6]; dosage 5 g/ha) | Post-emergence action against VIOTR in % (VIOTR [7]) | Post-emergence action against MATIN in % (MATIN [15]; dosage 5 g/ha) | Post-emergence action against MATIN in % (MATIN [15]; dosage 20 g/ha) | Pre-emergence action against AVEFA in % (AVEFA [17]) | Pre-emergence action against PHBPU in % (PHBPU [18])
90%: Post-emergence action against DIGSA in % (DIGSA; 5 g/ha) | Post-emergence action against DIGSA (DIGSA; 20 g/ha) | Post-emergence action against ALOMY in % (ALOMY [1]) | Pre-emergence action against ALOMY (herbicidal activity) (ALOMY [2]) | Post-emergence action against PHBPU in % (PHBPU [3]; dosage 5 g/ha) | Post-emergence action against ECHCG in % (ECHCG [6]; dosage 20 g/ha) | Post-emergence action against SETVI in % (SETVI [10]; dosage 5 g/ha) | Pre-emergence action against VIOTR in % (VIOTR [13]; dosage 20 g/ha) | Post-emergence action against ABUTH in % (ABUTH [14]; dosage 5 g/ha) | Post-emergence action against ABUTH in % (ABUTH [14]; dosage 20 g/ha) | Pre-emergence action against VERPE in % (VERPE)
